Experimental data published in the supplement of paper PMC10307832.

Assays:
Test in all cases: relative viability (nuclei count vs DMSO), 5 days (fraction); higher = more cells survive
[1] = compound: CCC1=CN=CN=C1N2CCN(CC2)CC3=NC4=C(N3)C=C(C=C4)C(F)(F)F + C[C@@H](Oc1cc(-c2cnn(C3CCNCC3)c2)cnc1N)c1c(Cl)ccc(F)c1Cl [Crizotinib] (partner 1 µM)
Procedure, shortened: (§1)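 A single step with final 0.05% Triton X-100, 1% formaldehyde and 1 ug/ml Hoechst fixed the cells and stained nuclei 5 days after treatment. Lung cancer cell lines in 1536-well plates had been treated by pin tool the day after seeding with one drug alone or a fixed anchor-drug dose plus five library-drug doses (not always all listed) in √10 steps, and nuclei were counted on 4× images. Relative viability is the ratio of nuclei in treated wells to nuclei in vehicle wells, taken as the median of duplicate plates.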

[2] = compound: CCC1=CN=CN=C1N2CCN(CC2)CC3=NC4=C(N3)C=C(C=C4)C(F)(F)F + C[C@]1(O)C[C@@H](c2nc(-c3ccc4ccc(-c5ccccc5)nc4c3)c3c(N)nccn32)C1 [Linsitinib] (partner 1 µM)
Procedure, shortened: as §1

[3] = compound: CCC1=CN=CN=C1N2CCN(CC2)CC3=NC4=C(N3)C=C(C=C4)C(F)(F)F + Cc1nc(NC(=O)N2CCC[C@H]2C(N)=O)sc1-c1ccnc(C(C)(C)C(F)(F)F)c1 [Alpelisib] (partner 2 µM)
Procedure, shortened: as §1

[4] = compound: CCC1=CN=CN=C1N2CCN(CC2)CC3=NC4=C(N3)C=C(C=C4)C(F)(F)F + O=C(c1cc(Cc2n[nH]c(=O)c3ccccc23)ccc1F)N1CCN(C(=O)C2CC2)CC1 [Olaparib] (partner 8 µM)
Procedure, shortened: as §1

HCC-15
relative viability ([1]; first compound 0.04 µM): 0.75 | relative viability ([1]; first compound 0.1265 µM): 0.78 | relative viability ([1]; first compound 0.4 µM): 0.819 | relative viability ([1]; first compound 1.265 µM): 0.946 | relative viability ([1]; first compound 4 µM): 1.06 | relative viability ([2]; first compound 0.04 µM): 0.945 | relative viability ([2]; first compound 0.1265 µM): 0.801 | relative viability ([2]; first compound 0.4 µM): 0.815 | relative viability ([2]; first compound 1.265 µM): 0.812 | relative viability ([2]; first compound 4 µM): 0.846 | relative viability ([3]; first compound 0.04 µM): 0.954 | relative viability ([3]; first compound 0.1265 µM): 0.877 | relative viability ([3]; first compound 0.4 µM): 0.925 | relative viability ([3]; first compound 1.265 µM): 0.892 | relative viability ([3]; first compound 4 µM): 0.889 | relative viability ([4]; first compound 0.04 µM): 0.688 | relative viability ([4]; first compound 0.1265 µM): 0.727 | relative viability ([4]; first compound 0.4 µM): 0.685 | relative viability ([4]; first compound 1.265 µM): 0.762 | relative viability ([4]; first compound 4 µM): 0.668

HCC-44
relative viability ([1]; first compound 0.04 µM): 0.83 | relative viability ([1]; first compound 0.1265 µM): 0.774 | relative viability ([1]; first compound 0.4 µM): 0.874 | relative viability ([1]; first compound 1.265 µM): 0.762 | relative viability ([1]; first compound 4 µM): 0.843 | relative viability ([2]; first compound 0.04 µM): 0.652 | relative viability ([2]; first compound 0.1265 µM): 0.648 | relative viability ([2]; first compound 0.4 µM): 0.666 | relative viability ([2]; first compound 1.265 µM): 0.643 | relative viability ([2]; first compound 4 µM): 0.634 | relative viability ([3]; first compound 0.04 µM): 0.789 | relative viability ([3]; first compound 0.1265 µM): 0.746 | relative viability ([3]; first compound 0.4 µM): 0.815 | relative viability ([3]; first compound 1.265 µM): 0.743 | relative viability ([3]; first compound 4 µM): 0.713 | relative viability ([4]; first compound 0.04 µM): 1.02 | relative viability ([4]; first compound 0.1265 µM): 0.963 | relative viability ([4]; first compound 0.4 µM): 0.978 | relative viability ([4]; first compound 1.265 µM): 0.99 | relative viability ([4]; first compound 4 µM): 0.966

HCC-78
relative viability ([1]; first compound 0.04 µM): 0.304 | relative viability ([1]; first compound 0.1265 µM): 0.3 | relative viability ([1]; first compound 0.4 µM): 0.345 | relative viability ([1]; first compound 1.265 µM): 0.322 | relative viability ([1]; first compound 4 µM): 0.379 | relative viability ([2]; first compound 0.04 µM): 0.38 | relative viability ([2]; first compound 0.1265 µM): 0.584 | relative viability ([2]; first compound 0.4 µM): 0.478 | relative viability ([2]; first compound 1.265 µM): 0.464 | relative viability ([2]; first compound 4 µM): 0.335 | relative viability ([3]; first compound 0.04 µM): 0.188 | relative viability ([3]; first compound 0.1265 µM): 0.348 | relative viability ([3]; first compound 0.4 µM): 0.333 | relative viability ([3]; first compound 1.265 µM): 0.4 | relative viability ([3]; first compound 4 µM): 0.279 | relative viability ([4]; first compound 0.04 µM): 0.893 | relative viability ([4]; first compound 0.1265 µM): 0.669 | relative viability ([4]; first compound 0.4 µM): 0.79 | relative viability ([4]; first compound 1.265 µM): 0.588 | relative viability ([4]; first compound 4 µM): 0.78

HCC-366
relative viability ([1]; first compound 0.04 µM): 0.622 | relative viability ([1]; first compound 0.1265 µM): 0.493 | relative viability ([1]; first compound 0.4 µM): 0.579 | relative viability ([1]; first compound 4 µM): 1.15 | relative viability ([2]; first compound 0.04 µM): 0.907 | relative viability ([2]; first compound 0.1265 µM): 0.595 | relative viability ([2]; first compound 0.4 µM): 0.525 | relative viability ([2]; first compound 4 µM): 0.661 | relative viability ([3]; first compound 0.04 µM): 0.563 | relative viability ([3]; first compound 0.1265 µM): 0.385 | relative viability ([3]; first compound 0.4 µM): 0.335 | relative viability ([3]; first compound 4 µM): 0.395 | relative viability ([4]; first compound 0.04 µM): 0.38 | relative viability ([4]; first compound 0.1265 µM): 0.355 | relative viability ([4]; first compound 0.4 µM): 0.29 | relative viability ([4]; first compound 1.265 µM): 0.349 | relative viability ([4]; first compound 4 µM): 0.335

HCC-827
relative viability ([1]; first compound 0.04 µM): 0.89 | relative viability ([1]; first compound 0.1265 µM): 0.903 | relative viability ([1]; first compound 0.4 µM): 0.945 | relative viability ([1]; first compound 1.265 µM): 0.973 | relative viability ([1]; first compound 4 µM): 0.917 | relative viability ([2]; first compound 0.04 µM): 0.951 | relative viability ([2]; first compound 0.1265 µM): 0.915 | relative viability ([2]; first compound 0.4 µM): 0.955 | relative viability ([2]; first compound 1.265 µM): 0.923 | relative viability ([2]; first compound 4 µM): 0.926 | relative viability ([3]; first compound 0.04 µM): 1 | relative viability ([3]; first compound 0.1265 µM): 0.926 | relative viability ([3]; first compound 0.4 µM): 0.969 | relative viability ([3]; first compound 1.265 µM): 0.988 | relative viability ([3]; first compound 4 µM): 0.956 | relative viability ([4]; first compound 0.04 µM): 0.698 | relative viability ([4]; first compound 0.1265 µM): 0.706 | relative viability ([4]; first compound 0.4 µM): 0.721 | relative viability ([4]; first compound 1.265 µM): 0.567 | relative viability ([4]; first compound 4 µM): 0.595

HOP-62
relative viability ([1]; first compound 0.04 µM): 0.777 | relative viability ([1]; first compound 0.1265 µM): 1.09 | relative viability ([1]; first compound 0.4 µM): 0.931 | relative viability ([1]; first compound 1.265 µM): 1.06 | relative viability ([1]; first compound 4 µM): 0.896 | relative viability ([2]; first compound 0.04 µM): 1.27 | relative viability ([2]; first compound 0.1265 µM): 1.02 | relative viability ([2]; first compound 0.4 µM): 0.983 | relative viability ([2]; first compound 1.265 µM): 0.87 | relative viability ([2]; first compound 4 µM): 0.77 | relative viability ([3]; first compound 0.04 µM): 1.16 | relative viability ([3]; first compound 0.1265 µM): 0.962 | relative viability ([3]; first compound 0.4 µM): 0.815 | relative viability ([3]; first compound 1.265 µM): 1.01 | relative viability ([3]; first compound 4 µM): 1.13 | relative viability ([4]; first compound 0.04 µM): 0.377 | relative viability ([4]; first compound 0.1265 µM): 0.293 | relative viability ([4]; first compound 0.4 µM): 0.269 | relative viability ([4]; first compound 1.265 µM): 0.458 | relative viability ([4]; first compound 4 µM): 0.363

IA-LM
relative viability ([1]; first compound 0.04 µM): 0.907 | relative viability ([1]; first compound 0.1265 µM): 0.763 | relative viability ([1]; first compound 0.4 µM): 0.94 | relative viability ([1]; first compound 1.265 µM): 0.669 | relative viability ([1]; first compound 4 µM): 0.759 | relative viability ([2]; first compound 0.04 µM): 0.664 | relative viability ([2]; first compound 0.1265 µM): 0.617 | relative viability ([2]; first compound 0.4 µM): 0.568 | relative viability ([2]; first compound 1.265 µM): 0.45 | relative viability ([2]; first compound 4 µM): 0.464 | relative viability ([3]; first compound 0.04 µM): 0.805 | relative viability ([3]; first compound 0.1265 µM): 0.752 | relative viability ([3]; first compound 0.4 µM): 0.668 | relative viability ([3]; first compound 1.265 µM): 0.766 | relative viability ([3]; first compound 4 µM): 0.748 | relative viability ([4]; first compound 0.04 µM): 0.649 | relative viability ([4]; first compound 0.1265 µM): 0.838 | relative viability ([4]; first compound 0.4 µM): 0.812 | relative viability ([4]; first compound 1.265 µM): 0.703 | relative viability ([4]; first compound 4 µM): 0.765

LC-2-ad
relative viability ([1]; first compound 0.04 µM): 0.501 | relative viability ([1]; first compound 0.1265 µM): 0.431 | relative viability ([1]; first compound 0.4 µM): 0.503 | relative viability ([1]; first compound 1.265 µM): 0.749 | relative viability ([1]; first compound 4 µM): 0.852 | relative viability ([2]; first compound 0.04 µM): 0.818 | relative viability ([2]; first compound 0.1265 µM): 0.87 | relative viability ([2]; first compound 0.4 µM): 0.765 | relative viability ([2]; first compound 1.265 µM): 0.813 | relative viability ([2]; first compound 4 µM): 0.788 | relative viability ([3]; first compound 0.04 µM): 0.715 | relative viability ([3]; first compound 0.1265 µM): 0.834 | relative viability ([3]; first compound 0.4 µM): 0.824 | relative viability ([3]; first compound 1.265 µM): 0.915 | relative viability ([3]; first compound 4 µM): 0.779 | relative viability ([4]; first compound 0.04 µM): 0.733 | relative viability ([4]; first compound 0.1265 µM): 0.644 | relative viability ([4]; first compound 0.4 µM): 0.661 | relative viability ([4]; first compound 1.265 µM): 0.653 | relative viability ([4]; first compound 4 µM): 0.636
